{"source": "patent US20110097427A1", "about": "“Molecular Targets and Dietary Modulators of Exercise-Induced Muscle Damage” (priority 2009, published 2011)", "origin": "cited, not measured here", "details": "Risérus et al., 2008, Diabetes 57: 332-339"}
{"compound": "Cc1cc(SCc2sc(-c3ccc(C(F)(F)F)cc3)nc2C)ccc1OCC(=O)O", "note": "[GW501516]", "values": [{"measurement": "urinary isoprostanes", "value": "reduced"}]}
